Where “and” joins values, the source holds several entries; their conditions need not be identical. Equal entries are not always repeated.
How the values were obtained:
cholesterol = assay: assaying for cholesterol in starved rats; format: in vivo, Male Rats (Wistar)
Description: Assaying for cholesterol
Male Rats, starve for 18 hours, ether narcosis, heart puncture
100 mg/kg of 7-[3-(N-methyl-N-

Triglycerides = assay: triglycerides in hyperlipacidaemic rats treated with octylphenol polyethylene glycolether; format: in vivo, Male rats (Wistar)
Description: Male rats, starve for 22 hours, ether narcosis, heart puncture
Dose: 1000 mg/kg of octylphenyl polyethylene glycolether i.v.
6 hours before blood removal
Dose: 100 mg/kg of 7-[3-(N-methyl-N-2-hydroxyethyl)-amino-2-
hydroxypropyl]-1,3-dimethylxanthine-3-methylpyrazole-5-
carboxylate by esophagus probe, 6 hours, 4 hours and
2 hours before blood removal

serum triglycerides (TG) = assay: influence on the serum triglycerides (TG) in normal animals; format: in vivo, Rats (Wistar); conditions: for TG: starve for 5 hours; for TG, mean (x): 1 hour
Description: Rats, starve for 5 hours
40 mg/kg body weight of active principle according to
the invention, oral by esophagus probe 1 hour before
12 mg/kg body weight of 3-methylpyrazole-5-carboxylic
acid, equim. dosage, 1 hour before removal of blood
Dose: 10 mg/kg body weight of active principle according to the
invention, oral by esophagus probe 1 hour before blood removal
Dose: 3 mg/kg body weight of 3-methylpyrazole-5-carboxylic acid,
equim. dosage, oral by esophagus probe 1 hour before

serum fatty acids (FFS) = assay: influence on the serum fatty acids (FFS) of normal animals; format: in vivo, Female rats (Wistar); conditions: normal female rats, 100 mg/kg oral, 1 hour after application
Description: (§1) Investigations on a total of 260 Wistarrats were conducted with 7-[3-(N-methyl-N-2-hydroxyethyl)-amino-2-hydroxypropyl]-1,3-dimethylxanthine-3-methylpyrazole-5-carboxylate.
(§2) Examination of the influence of 7-[3-(N-methyl-N-2-hydroxy-
(§3) ethyl)-amino-2-hydroxypropyl]-1,3-dimethylxanthine-3-methyl-
(§4) pyrazole-5-carboxylate on the serum fatty acids (FFS) of
Female rats, starve for 5 hours
(§5) Dose: 100 mg/kg body weight, oral by esophagus probe,
(§6) Blood removal: 1 hour after application

free fatty acids (FFS) [1] = assay: influence on the free fatty acids (FFS) in starved (hyperlipacidaemic) animals, hunger lipolysis; format: in vivo, rats (Wistar)
Description: as §1, §2, §3, §4
Male Rats, starve for 17 hours
as §5, §6
pyrazole-5-carboxylate on the free fatty acids (FFS) in
starved animals 1 hour after application
Comparative examinations of the influence of 7-[3-(N-methyl-
carboxylic acid on the free fatty acids (FFS) in starved
animals 1 hour after application
pyrazole-5-carboxylic acid on the free fatty acids (FFS)
in starved animals 6 hours after application

free fatty acids (FFS) [2] = assay: influence on the free fatty acids (FFS) after repeated application once daily for 4 days; format: in vivo, Rats male (Wistar); conditions: individual animals; 4 × appl. 50 mg/kg p.o.; 30' after last application
Description: Rats male, repeated application once daily for 4 days,
on the 4th day groups of 10 animals were killed at
intervals of 30 minutes, 1 hour and 2 hours after the
last application by ether narcosis and heart puncture.
10 controls were given esophagus probe, animals starved
for 17 hours before killing (cf. FIG. 4)
7-[3-(N-methyl-2-hydroxyethyl)-amino-2-
hydroxypropyl]-1,3-dimethylxanthine-3-
methylpyrazole-5-carboxylate 50 mg/kg peroral
3-methylpyrazole-5-carboxylic acid (3-MPC)
eq./kg 15 mg/kg peroral

`CN(CCO)CC(O)Cn1cnc2c1c(=O)n(C)c(=O)n2C.Cc1cc(C(=O)O)[nH]n1` (stereo not drawn) [7-[3-(N-methyl-N-2-hydroxyethyl)-amino-2-hydroxypropyl]-1,3-dimethylxanthine-3-methylpyrazole-5-carboxylate] was tested, and the “cholesterol level of starved rats” value (cholesterol; 100 mg/kg perorally, result in words) was “significantly reduces the cholesterol level”, the Cholesterol (cholesterol; individual animals, starve for 18 hours, 100 mg/kg per os 1 hour before killing, 100 mg/kg) was 78.45 mg % and 50.86 mg % and 57.76 mg % and 47.71 mg % and 62.07 mg % and 48.28 mg % and 65.52 mg % and 56.03 mg % and 38.79 mg % and the “Cholesterol, mean (x10)” value (cholesterol; mean of 10, starve for 18 hours, 100 mg/kg per os 1 hour before killing, control 75.69, p<0.001) was 57.07 mg %. The triglyceride level (Triglycerides; hyperlipacidaemic rats, result in words) was “significant reduction in the triglyceride level”, the TG (Triglycerides; individual animals, octylphenol polyethylene glycolether 1000 mg/kg i.v. 6 hours before, 100 mg/kg per os 6, 4 and 2 hours before killing) was 644.4 mg % and 687.4 mg % and 701.6 mg % and 707.4 mg % and 610.0 mg % and 703.1 mg % and 695.9 mg % and 711.7 mg % and the “TG, mean (x)” value (Triglycerides; mean, octylphenol polyethylene glycolether 1000 mg/kg i.v., 100 mg/kg per os 6, 4 and 2 hours before killing, control x = 777.2, p<0.001) was 687.0 mg %. The TG (serum triglycerides (TG); Table 7, individual animals, 40 mg/kg oral 1 hour before removal of blood, 40 mg/kg) was 71.6 mg % and 22.9 mg % and 15.8 mg % and 18.6 mg % and 41.5 mg % and 40.1 mg % and 58.7 mg % and 32.9 mg % and 45.8 mg %, the “TG, mean (x)” value (serum triglycerides (TG); Table 7, mean, 40 mg/kg oral, control x = 66.4, p<0.0027>Ko) was 36.3 mg % and the TG (serum triglycerides (TG); Table 8, individual animals, 10 mg/kg oral 1 hour before blood removal, 10 mg/kg) was 48.7 mg % and 54.4 mg % and 83.1 mg % and 55.8 mg % and 74.4 mg % and 81.6 mg % and 51.5 mg % and 40.1 mg %. For the same compound, the “TG, mean (x)” value (serum triglycerides (TG); Table 8, mean, 10 mg/kg oral, control x = 86.3, p<0.05>Ko) was 59.8 mg %, the “serum triglyceride level of normal animals” value (serum triglycerides (TG); doses down to 10 mg/kg, result in words) was “significantly reduces the serum triglyceride level” and the FFS (serum fatty acids (FFS); individual animals, starve for 5 hours, 100 mg/kg) was 0.51 μval/ml and 0.58 μval/ml and 0.52 μval/ml and 0.56 μval/ml and 0.57 μval/ml and 0.48 μval/ml and 0.54 μval/ml. For the same compound, the “FFS, mean (φ)” value (serum fatty acids (FFS); mean of test series, control φ 0.60) was 0.53 μval/ml, the FFS (free fatty acids (FFS) [1]; Table 2, individual animals, male rats, starve for 17 hours, 100 mg/kg oral, 1 hour, 100 mg/kg) was 0.29 μval/ml and 0.34 μval/ml and 0.54 μval/ml and 0.47 μval/ml and 0.67 μval/ml and 0.46 μval/ml and 0.44 μval/ml and 0.43 μval/ml and 0.39 μval/ml and 0.48 μval/ml and 0.51 μval/ml and 0.45 μval/ml and the “FFS, mean (φ)” value (free fatty acids (FFS) [1]; Table 2, mean, male rats, starve for 17 hours, 100 mg/kg oral, 1 hour, control φ 0.91, p<0.001) was 0.46 μval/ml. It also gave an FFS (free fatty acids (FFS) [1]; Table 4 dose-effect, starved animals, 1 hour, 2.0 mg/kg, n 10, control 0.87, ***p<0.001) of 0.51 μval/ml, an FFS (free fatty acids (FFS) [1]; Table 4 dose-effect, starved animals, 1 hour, 2.5 mg/kg, n 13, control 0.86) of 0.50 μval/ml and an FFS (free fatty acids (FFS) [1]; Table 4 dose-effect, starved animals, 1 hour, 5 mg/kg, n 5, control 0.83) of 0.43 μval/ml. It also gave an FFS (free fatty acids (FFS) [1]; Table 4 dose-effect, starved animals, 1 hour, 10 mg/kg, n 10, control 0.97) of 0.53 μval/ml, an FFS (free fatty acids (FFS) [1]; Table 4 dose-effect, starved animals, 1 hour, 20 mg/kg, n 5, control 0.90) of 0.56 μval/ml and an FFS (free fatty acids (FFS) [1]; Table 4 dose-effect, starved animals, 1 hour, 30 mg/kg, n 4, control 1.02) of 0.54 μval/ml. It also gave an FFS (free fatty acids (FFS) [1]; Table 4 dose-effect, starved animals, 1 hour, 40 mg/kg, n 5, control 1.02) of 0.48 μval/ml, an FFS (free fatty acids (FFS) [1]; Table 4 dose-effect, starved animals, 1 hour, 50 mg/kg, n 10, control 1.08, **p<0.001) of 0.40 μval/ml and an FFS (free fatty acids (FFS) [1]; Table 4 dose-effect, starved animals, 1 hour, 100 mg/kg, n 15, control 0.91, *p<0.001) of 0.46 μval/ml. For the same compound, the FFS (free fatty acids (FFS) [1]; Table 5, individual animals, starved, 1 hour after application, 50 mg/kg) was 0.39 μval/ml and 0.44 μval/ml and 0.46 μval/ml and 0.40 μval/ml and 0.35 μval/ml and 0.45 μval/ml and 0.37 μval/ml and 0.32 μval/ml and 0.41 μval/ml, the “FFS, mean” value (free fatty acids (FFS) [1]; Table 5, mean, n=10, starved, 1 hour after application, 50 mg/kg, control 1.08, p<0.001) was 0.40 μval/ml and the FFS (free fatty acids (FFS) [1]; Table 6, individual animals, starved, 6 hours after application, 50 mg/kg BW p.o., 50 mg/kg) was 0.39 μval/ml and 0.35 μval/ml and 0.43 μval/ml and 0.58 μval/ml and 0.54 μval/ml and 0.63 μval/ml and 0.77 μval/ml and 0.52 μval/ml and 0.51 μval/ml and 0.96 μval/ml and 0.59 μval/ml and 0.78 μval/ml and 0.53 μval/ml and 0.44 μval/ml and 0.64 μval/ml and 0.85 μval/ml and 0.32 μval/ml. The “FFS, mean (x)” value (free fatty acids (FFS) [1]; Table 6, mean, n=21, starved, 6 hours after application, 50 mg/kg BW p.o., control 0.86, p<0.001) was 0.57 μval/ml, the “lipolysis-inhibiting effect compared with free 3-methylpyrazole-5-carboxylic acid” value (free fatty acids (FFS) [1]; equimolar dosage, especially 6 hours after application) was “more pronounced than that of the free 3-methylpyrazole-5-carboxylic acid” and the “free fatty acids (FFS)” value (free fatty acids (FFS) [2]) was 0.72 μval/ml plasma and 0.94 μval/ml plasma and 0.69 μval/ml plasma and 0.83 μval/ml plasma and 1.36 μval/ml plasma and 0.89 μval/ml plasma and 0.66 μval/ml plasma and 0.67 μval/ml plasma and 0.86 μval/ml plasma and 1.07 μval/ml plasma.
